According to patent US7033802B1, “Penicillin binding protein gene and process for producing L-glutamic acid” (Ajinomoto Co., Inc., priority 1998, dated 2006):
Entries after “also recorded” stand apart in the source; their conditions may differ.

Tests used:
[1] = tested on: Brevibacterium lactofermentum ATCC 13869; assay: Glutamic acid production by coryneform bacterium induced by addition of mecillinam; type: cell-based; conditions: A medium, 30° C., added after 2 hours, further cultured 8 hours
Description: The Brevibacterium lactofermentum ATCC 13869 strain was inoculated to the aforementioned A medium, cultured at 30° C. for 2 hours with shaking, then added with 0.01 μM to 100 μM of mecillinam, and further cultured for 8 hours with shaking. Subsequently, glutamic acid concentration in the medium was measured by using Biotech Analyzer AS210 (produced by Asahi Chemical Industry Co., Ltd.) (Table 1).

PBP3 = assay: Inhibition by mecillinam of binding of 14C-penicillin G to PBPs in membrane fraction (SDS-PAGE, image analyzer); design: species or system Brevibacterium lactofermentum; conditions: mecillinam added at various concentrations before the penicillin binding reaction; membrane fraction of ATCC 13869
Description: PBP is considered to be a membrane protein. A membrane fraction of a coryneform bacterium was prepared as follows. A wild strain of coryneform bacteria, Brevibacterium lactofermentum ATCC 13869 strain, was inoculated to 20 ml of A medium (containing 10 g of polypeptone, 5 g of yeast extract, 5 g of NaCl and 5 g of glucose in 1 L of water), cultured at 30° C. with shaking, and harvested when the absorption at 660 nm reached about 1.0. The cells were washed in […] sodium phosphate buffer, pH 7.0. Then, the buffer was added with glass beads and sonicated to disrupt the cells. […] Protein concentration of this membrane fraction was determined by using a protein quantification kit (produced by PIERCE, Micro BCA Protein assay kit), and found to be 4 mg/ml.
A volume of 30 μl of the prepared membrane fraction was added with 3 μl of ^14C-penicillin G (produced by Amersham) and allowed to react at 30° C. for 10 minutes. […] A sample of this fraction was subjected to SDS-PAGE using gel containing 10% of polyacrylamide, and the gel was fixed, dried and analyzed with an image analyzer BAS2000 produced by Fuji Photo Film Co., Ltd. As a result, three bands were detected at 110 kDa, 100 kDa and 60 kDa, and designated as PBP1, PBP2 and PBP3, respectively. […]

With `CC1(C)S[C@@H]2[C@H](/N=C/N3CCCCCC3)C(=O)N2[C@H]1C(=O)O` [mecillinam] the “Concentration of L-glutamic acid” value ([1]; 0.1 μM added mecillinam) was 0 mg/L, the “Concentration of L-glutamic acid” value ([1]; 1.0 μM added mecillinam) was 0 mg/L and the “Concentration of L-glutamic acid” value ([1]; 10 μM added mecillinam) was 0 mg/L. The “Concentration of L-glutamic acid” value ([1]; 100 μM added mecillinam) was 575 mg/L and the “inhibition of binding of PBP with isotope (14C) labeled penicillin G / selectivity among PBP1, PBP2, PBP3” value (PBP3) was “only PBP3 was inhibited; also recorded: selectively binds to PBP3”.
